The assay deals with CD2F1 mice, L1210 leukemia ip, survival T/C. Kind of assay: NCI In Vivo Anticancer Drug Screen. Data for tumor model L1210 Leukemia (intraperitoneal) in CD2F1 (CDF1) mice. The conditions noted are these: higher = longer survival. In short, it runs like this: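 Compound-dosed mice with transplantable tumor versus matched vehicle controls; endpoint ratio T/C reported.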
The mark [1] stands for this setting: endpoint: mean survival time, dose: 50.0 mg/kg/injection, schedule: Q04DX003 (ip), vehicle: saline.
Setting [2] is: endpoint: mean survival time, dose: 100.0 mg/kg/injection, schedule: Q04DX003 (ip), vehicle: saline.
[3] abbreviates: endpoint: mean survival time, dose: 200.0 mg/kg/injection, schedule: Q04DX003 (ip), vehicle: saline.
[4] abbreviates: endpoint: mean survival time, dose: 6.25 mg/kg/injection, schedule: Q01DX009 (ip), vehicle: saline with Tween-80.
The mark [5] stands for this setting: endpoint: mean survival time, dose: 12.5 mg/kg/injection, schedule: Q01DX009 (ip), vehicle: saline with Tween-80.
[6] abbreviates: endpoint: mean survival time, dose: 25.0 mg/kg/injection, schedule: Q01DX009 (ip), vehicle: saline with Tween-80.
Setting [7] is: endpoint: mean survival time, dose: 100.0 mg/kg/injection, schedule: Q01DX009 (ip), vehicle: saline with Tween-80.
The mark [8] stands for this setting: endpoint: mean survival time, dose: 100.0 mg/kg/injection, schedule: Q04DX003 (ip), vehicle: saline with Tween-80.
[9] abbreviates: endpoint: mean survival time, dose: 200.0 mg/kg/injection, schedule: Q01DX009 (ip), vehicle: saline with Tween-80.
Setting [10] is: endpoint: mean survival time, dose: 200.0 mg/kg/injection, schedule: Q04DX003 (ip), vehicle: saline with Tween-80.
Where [11] appears, read: endpoint: mean survival time, dose: 400.0 mg/kg/injection, schedule: Q04DX003 (ip), vehicle: saline with Tween-80.
Where [12] appears, read: endpoint: mean survival time, dose: 50.0 mg/kg/injection, schedule: Q01DX009 (ip), vehicle: saline with Tween-80.
Where [13] appears, read: endpoint: mean survival time, dose: 25.0 mg/kg/injection, schedule: Q04DX002 (ip), vehicle: saline with Tween-80.
[14] abbreviates: endpoint: mean survival time, dose: 50.0 mg/kg/injection, schedule: Q04DX002 (ip), vehicle: saline with Tween-80.
[15] abbreviates: endpoint: mean survival time, dose: 100.0 mg/kg/injection, schedule: Q04DX002 (ip), vehicle: saline with Tween-80.
Where [16] appears, read: endpoint: mean survival time, dose: 200.0 mg/kg/injection, schedule: Q04DX002 (ip), vehicle: saline with Tween-80.

Values joined by “and” are separate entries in the source; they are usually repeats but may differ in a detail not shown here. Equal entries are not always repeated. Inconclusive results and toxic doses are left out.

On to `CC(=O)Oc1ccccc1N(C(C)=O)S(=O)(=O)c1ccc(C)cc1`, for which the T/C reads like this: under setting [1], 98 % of control; (endpoint: mean survival time, dose: 100.0 mg/kg/injection, schedule: Q01DX001 (ip), vehicle: saline) 106 % of control; under setting [2], 101 % of control; (endpoint: mean survival time, dose: 200.0 mg/kg/injection, schedule: Q01DX001 (ip), vehicle: saline) 108 % of control; under setting [3], 101 % of control; (endpoint: mean survival time, dose: 400.0 mg/kg/injection, schedule: Q01DX001 (ip), vehicle: saline) 100 % of control.

`NCCCNCCNCCCN`: the T/C reads like this: (endpoint: mean survival time, dose: 25.0 mg/kg/injection, schedule: Q04DX003 (ip), vehicle: saline) 101 % of control; under setting [1], 101 % of control; under setting [2], 97 % of control.

Turning to `c1ccc2c(c1)sc1[n+]2CCS1`, the T/C (endpoint: mean survival time, dose: 75.0 mg/kg/injection, schedule: Q01DX001 (ip), vehicle: saline) was 113 % of control.

In the case of `O=[N+]([O-])c1cc(Br)ccc1P(=O)(O)O`, the T/C under setting [1] was 95 % of control, the T/C under setting [2] was 96 % of control and the T/C under setting [3] is 93 % of control.

Consider `c1ccc(N=N/C(=N/Nc2ccccc2)c2ccccc2)cc1`, for which the T/C runs as follows: under setting [4], 104 % of control; under setting [5], 101 % of control; under setting [6], 98 % of control.

In the case of `CCOC(=O)Nc1c(C)noc1NC(C)=O`, the T/C under setting [7] was 95 % of control; the T/C under setting [8] was 94 % of control; the T/C under setting [9] was 95 % of control; the T/C under setting [10] was 94 % of control; the T/C (endpoint: mean survival time, dose: 400.0 mg/kg/injection, schedule: Q01DX009 (ip), vehicle: saline with Tween-80) is 104 % of control; the T/C under setting [11] is 94 % of control.

For the molecule `Nc1ncnc2c1ncn2C1OC(CO)C2NP(=O)(N(CCCl)CCCl)OC21` (stereo not drawn), the T/C is 98 % of control and 101 % of control (endpoint: mean survival time, dose: 15.6 mg/kg/injection, schedule: Q01DX001 (ip), vehicle: distilled water + Tween-80); 101 % of control (endpoint: mean survival time, dose: 31.3 mg/kg/injection, schedule: Q01DX001 (ip), vehicle: distilled water + Tween-80); 101 % of control (endpoint: mean survival time, dose: 62.5 mg/kg/injection, schedule: Q01DX001 (ip), vehicle: distilled water + Tween-80).

Consider `C/C=C1/OC(n2cnc3c(N)ncnc32)C(O)C1O` (stereo not drawn), for which the T/C by setting is: (endpoint: mean survival time, dose: 10.0 mg/kg/injection, schedule: Q01DX005 (ip), vehicle: distilled water + Tween-80) 103 % of control; (endpoint: mean survival time, dose: 20.0 mg/kg/injection, schedule: Q01DX005 (ip), vehicle: distilled water + Tween-80) 107 % of control; (endpoint: mean survival time, dose: 40.0 mg/kg/injection, schedule: Q01DX005 (ip), vehicle: distilled water + Tween-80) 95 % of control; (endpoint: mean survival time, dose: 80.0 mg/kg/injection, schedule: Q01DX005 (ip), vehicle: distilled water + Tween-80) 100 % of control; (endpoint: mean survival time, dose: 160.0 mg/kg/injection, schedule: Q01DX005 (ip), vehicle: distilled water + Tween-80) 97 % of control.

Take `Cc1ccc([N+](=O)[O-])c(P(=O)(O)O)c1`: the T/C reads like this: under setting [6], 91 % of control; under setting [12], 88 % of control; under setting [7], 87 % of control.

In the case of `N=C(OC1CCCCC1)C(Cl)(Cl)Cl`, the T/C reads like this: under setting [12], 92 % of control; under setting [7], 88 % of control.

For the molecule `NNc1ccccc1F`, the T/C under setting [13] was 97 % of control; the T/C under setting [14] was 90 % of control; the T/C under setting [15] was 93 % of control; the T/C (endpoint: mean survival time, dose: 100.0 mg/kg/injection, schedule: Q04DX003 (ip), vehicle: saline sonified) is 87 % of control.

Turning to `N#CNC(N)=O`, the T/C reads like this: (endpoint: mean survival time, dose: 100.0 mg/kg/injection, schedule: Q01DX009 (ip), vehicle: saline sonified) 102 % of control; (endpoint: mean survival time, dose: 200.0 mg/kg/injection, schedule: Q01DX009 (ip), vehicle: saline sonified) 96 % of control; (endpoint: mean survival time, dose: 400.0 mg/kg/injection, schedule: Q01DX009 (ip), vehicle: saline sonified) 100 % of control.

On to `Cc1ccc(NC(=O)OCCOc2ccc(Cl)cc2)cc1C`, for which the T/C is 96 % of control under setting [12], 92 % of control under setting [7] and 87 % of control under setting [9].

For `Cc1cc(N(CCOS(C)(=O)=O)CCOS(C)(=O)=O)ccc1C=Nc1ccc(-c2nc(Cc3ccccc3)sc2C)cc1`, the T/C by setting is: (endpoint: mean survival time, dose: 12.5 mg/kg/injection, schedule: Q01DX009 (ip), vehicle: Klucel (hydroxypropylcellulose) (HPC)) 103 % of control and 106 % of control; (endpoint: mean survival time, dose: 25.0 mg/kg/injection, schedule: Q01DX009 (ip), vehicle: Klucel (hydroxypropylcellulose) (HPC)) 117 % of control and 124 % of control; (endpoint: mean survival time, dose: 50.0 mg/kg/injection, schedule: Q01DX009 (ip), vehicle: Klucel (hydroxypropylcellulose) (HPC)) 117 % of control and 111 % of control; (endpoint: mean survival time, dose: 100.0 mg/kg/injection, schedule: Q01DX009 (ip), vehicle: Klucel (hydroxypropylcellulose) (HPC)) 118 % of control and 120 % of control; (endpoint: mean survival time, dose: 200.0 mg/kg/injection, schedule: Q01DX009 (ip), vehicle: Klucel (hydroxypropylcellulose) (HPC)) 110 % of control; (endpoint: mean survival time, dose: 400.0 mg/kg/injection, schedule: Q01DX009 (ip), vehicle: Klucel (hydroxypropylcellulose) (HPC)) 103 % of control.

For the molecule `CCOC(=O)c1ccc(NC(=O)Oc2cc3ccccc3cc2C(=O)Nc2ccccc2)cc1`, the T/C is, setting by setting: (endpoint: mean survival time, dose: 25.0 mg/kg/injection, schedule: Q01DX001 (ip), vehicle: saline with Tween-80) 87 % of control; under setting [6], 94 % of control and 96 % of control; under setting [13], 97 % of control; (endpoint: mean survival time, dose: 25.0 mg/kg/injection, schedule: Q04DX003 (ip), vehicle: saline with Tween-80) 96 % of control and 98 % of control; (endpoint: mean survival time, dose: 50.0 mg/kg/injection, schedule: Q01DX001 (ip), vehicle: saline with Tween-80) 87 % of control; under setting [12], 88 % of control and 92 % of control. Moreover, the T/C runs as follows: under setting [14], 88 % of control and 92 % of control; (endpoint: mean survival time, dose: 50.0 mg/kg/injection, schedule: Q04DX003 (ip), vehicle: saline with Tween-80) 88 % of control and 92 % of control; (endpoint: mean survival time, dose: 100.0 mg/kg/injection, schedule: Q01DX001 (ip), vehicle: saline with Tween-80) 87 % of control; under setting [7], 91 % of control and 96 % of control; under setting [8], 92 % of control; under setting [16], 87 % of control. Further, under setting [10], the T/C was 92 % of control and 93 % of control.

Consider `COc1ccc2c(c1)CCn1c(C)c(COC(=O)NC(C)C)c(COC(=O)NC(C)C)c1-2`, for which the T/C is, setting by setting: (endpoint: median survival time, dose: 3.12 mg/kg/injection, schedule: Q01DX009 (ip), vehicle: distilled water + Tween-80) 120 % of control; (endpoint: median survival time, dose: 3.13 mg/kg/injection, schedule: Q01DX009 (ip), vehicle: distilled water + Tween-80) 123 % of control; (endpoint: median survival time, dose: 6.25 mg/kg/injection, schedule: Q01DX009 (ip), vehicle: distilled water + Tween-80) 114 % of control; (endpoint: median survival time, dose: 25.0 mg/kg/injection, schedule: Q01DX009 (ip), vehicle: distilled water + Tween-80) 152 % of control and 157 % of control; (endpoint: median survival time, dose: 50.0 mg/kg/injection, schedule: Q01DX009 (ip), vehicle: distilled water + Tween-80) 114 % of control.

Turning to `CCCCCCCCCCCCCCCC(=O)N(CCC#N)CCC#N`, the T/C under setting [8] is 93 % of control, the T/C under setting [9] is 97 % of control, the T/C under setting [10] was 96 % of control and the T/C under setting [11] was 109 % of control.

For `O=C1OCCC1=P(c1ccccc1)(c1ccccc1)c1ccccc1`, the T/C reads like this: under setting [12], 100 % of control; under setting [7], 96 % of control; under setting [9], 96 % of control.

As for `CC(=Nc1ccccc1)C1=C(O)C(Cc2ccccc2)NC1=O` (stereo not drawn), the T/C under setting [5] is 98 % of control and 103 % of control; the T/C (endpoint: mean survival time, dose: 12.5 mg/kg/injection, schedule: Q04DX002 (ip), vehicle: saline with Tween-80) is 100 % of control; the T/C under setting [6] is 102 % of control and 111 % of control; the T/C under setting [13] is 103 % of control; the T/C under setting [12] was 118 % of control and 108 % of control; the T/C under setting [14] is 103 % of control. For the same molecule, the T/C under setting [7] was 110 % of control.

Regarding `CCN(CC)CC(O)CNc1cc(C)nc(/N=C(\N)Nc2ccc(Cl)c(Cl)c2)n1` (stereo not drawn), the T/C was 98 % of control under setting [4], 104 % of control under setting [5] and 106 % of control under setting [6].

For `CCCC(=O)Nc1ccc([N+](=O)[O-])cc1OC`, the T/C under setting [8] was 96 % of control, the T/C under setting [10] was 102 % of control and the T/C under setting [11] was 104 % of control.

With `O=C1c2ccccc2C(O)(c2[nH]nc3ccccc23)N1c1ccccc1` (stereo not drawn), the T/C was 103 % of control under setting [14]; 103 % of control under setting [15]; 113 % of control under setting [16]; 106 % of control (endpoint: mean survival time, dose: 400.0 mg/kg/injection, schedule: Q04DX002 (ip), vehicle: saline with Tween-80).

Values taken from PubChem BioAssay AID256 (DTP/NCI, 2004).
